How the values were obtained:
[1] = test system: Human hepatocellular carcinoma HuH7 cells; experiment: Transfection of adherent HuH7 cells in culture with pCMVβ plasmid, β-galactosidase activity; format: cell-based; settings: HuH7 lysate; 0.5 μg pCMVβ plasmid + 0.5 μg tri-galactosyl-lysyl-lysyl aminopentyl spermidine + 2.5 μg cholesteryl-oxycarbonyl aminopentyl spermidine in 100 μL Optimem; after 30 min
Procedure: Human hepatocellular carcinoma HuH7 cells were grown and seeded into a 96 well plate with 1-2×10^4 cells in 100 μL of minimal essential media α, modification with 10% serum. The plates were incubated in a 37° CO2 incubator until the cells were 60-80% confluent (approximately 24 hrs). The media was removed and the cells washed once with Optimem® (serum free media). Optimem® (100 μL) containing 0.5 μg of pCMVβ plasmid (from Clonetech, No. 6177-1), 0.5 μg of N^4-(5-[N^2,N^6-bis(β-3′-propionyl galactosyl-β1-4-thioglucoside)lysyl-N^6-(β-3′-propionyl galactosyl-β1-4-thioglucoside)lysyl]aminopentyl)-spermidine and 2.5 μg of N^4-(5-cholestene-3′β-oxycarbonyl)-aminopentyl)spermidine was added to the cells. The cells were incubated with the mixture for 4 hrs in a 37° CO2 incubator; thereafter 100 μL of media containing 20% serum was added and the incubation continued for an additional 20 hrs. Cells lysed with 0.5% NP-40 in 140 mM NaCl, 10 mM tris, 1.5 mM MgCl2 were assayed for β-galactosidase activity using o-nitrophenyl β-D-galactopyranoside, and gave A405=1.35 after 30 min. Cells grown in 6 well plates (25 mm diameter) and treated similarly were fixed with 2% paraformaldehyde and assayed for β-galactosidase activity using 5-bromo-4-chloro-3-indolyl β-D-galactopyranoside (J. Sambrook, et al., Molecular Cloning: A Laboratory Manual, Cold Spring Harbor, 1989).

Liver Cells = experiment: Transfection of liver cells in vivo with pHBVSA plasmid, serum hepatitus B surface antigen immunoassay; set-up: species or system BALB-C mice; settings: 10 μg pHBVSA plasmid + 5 μg tri-galactosyl compound + 25 μg cholesteryl compound in 100 μL PBS, tail vein; 48 hrs post-injection; example in present tense
Procedure: […] The plasmid solution (100 μL) is injected into the tail vein of 6-12 week old BALB-C mice. The mice are sacrificed 48-120 hrs later and the serum tested for hepatitus B surface antigen using a commercial enzyme-linked immunoassay.

Muscle Cells = experiment: Transfection of muscle cells in vivo with pCMVβ plasmid, β-galactosidase staining of quadriceps; set-up: species or system BALB-C mice; settings: 100 μg pCMVβ plasmid + 100 μg compound in 100 μL PBS, injected into rear quadriceps, approx. 96 hrs; control plasmid in 0.25% bupivicaine hydrochloride
Procedure: Solutions were prepared containing 100 μg of pCMVβ plasmid and 100 μg of either N^4-octylspermidine, N^4-dodecylspermidine or N^4-(5-cholestene-3′β-oxycarbonyl)aminopentyl)spermidine, each in 100 μL of phosphate buffered saline. The plasmid solution (100 μL) was injected into the rear quadriceps of 6-12 week old BALB-C mice. The mice were sacrificed approximately 96 hrs later and the entire quadriceps muscle tissue was removed. The muscle was fixed with formalin for 2 hrs, and assayed for β-galactosidase activity using 5-bromo-4-chloro-3-indolyl-β-D-galactopyranoside (1 mg/mL in tris/EDTA pH 8.5). All three injections were scored as positive since the blue color was more intense than the control: injection of 100 μg of pCMVβ plasmid injected in 100 μL of 0.25% bupivicaine hydrochloride in citrate buffer pH 6.0.

## 4-[(N^2-[N^2,N^6-bis(3-[4-O(β-D-galactopyranosyl)-β-D-glucopyranosylthio]propionyl)lysyl]N^6-(3-[4-O-(β-D-galactopyranosyl)-β-D-glucopyranosylthio]-propionyl)lysinamido)pentyl]-1,8-diamino-4-azaoctane, acetate salt
[1]
  β-galactosidase activity using o-nitrophenyl β-D-galactopyranoside, A405: 1.35
Liver Cells
  production of hepatitus B surface antigen in serum: greater than the positive control

## CC(C)CCC[C@@H](C)[C@H]1CC[C@H]2[C@@H]3CC=C4C[C@@H](OC(=O)NCCCCCN(CCCN)CCCCN)CC[C@]4(C)[C@H]3CC[C@]12C.Cl [N^4-(5-cholestene-3′β-oxycarbonyl)aminopentyl spermidine hydrochloride Salt]
[1]
  β-galactosidase activity using o-nitrophenyl β-D-galactopyranoside, A405: 1.35
Muscle Cells
  β-galactosidase staining of quadriceps muscle, score versus control: positive
Liver Cells
  production of hepatitus B surface antigen in serum: greater than the positive control

## CCCCCCCCCCCCN(CCCN)CCCCN.Cl.Cl.Cl [N^4-dodecylspermidine, N^4-dodecylspermidine trihydrochloride]
Muscle Cells
  β-galactosidase staining of quadriceps muscle, score versus control: positive

## N^4-octylspermidine
Muscle Cells
  β-galactosidase staining of quadriceps muscle, score versus control: positive
